# Source: patent publication US20220347085A1, “REPELLENT COMPOSITION AND USES” (Université Bourgogne, priority 2019, published 2022)
# Tested on: Drosophila suzukii
# Assay: Anesthesia test, Drosophila suzukii
# Format: in vivo
# Conditions: female flies
# Procedure: The devices used were similar to the devices for studying the courtship (example 1 above), except for the volume of the space into which the files were introduced, which was 45.24 or 22.62 cm^3. 9 discs of filter paper (Whatman, filter paper 42), each soaked in 10 μl of a composition comprising butyric acid and/or propionic acid and/or a derivative of propionic acid diluted in paraffin oil were deposited in the device. The different compositions used comprised, respectively, 2% propionic acid or 2% butyric acid or 5% ethyl propanoate or 10% ethyl propanoate or 30% ethyl propanoate. For each composition, the number of flies was, respectively, 30 and 24 males, 30 and 11 females for Drosophila melanogaster, and 24, 16 and 4 males, 28, 26, 6, 5 and 4 females for Drosophila suzukii. In order to avoid any contact of the flies with the soaked disks of paper, a gauze (netting) was arranged above said papers. The drosophilae could move freely on said gauze. The quantity of compound, butyric acid or propionic acid, or of ethyl propanoate (odor) volatilized in the behavior chamber was equivalent to that of the device used for the courtship. Likewise, the flies were never in direct contact with the composition (no taste perception), only with the volatile particles (olfactory perception). The flies tested were introduced simultaneously, by group, into the enclosure. Their behavior was filed for 10 minutes, and a time required for leading to anesthesia was calculated over this period, depending on the concentration of butyric acid or propionic acid or ethyl propanoate used. The flies were considered anesthetized when they stopped moving and fell on their side.
smiles,measurement,setting,value
CCOC(=O)CC [ethyl propanoate],time elapsed leading to anesthesia,5% in paraffin oil,approximately 6 minutes
same,time elapsed leading to anesthesia,10% in paraffin oil,approximately 4 minutes
same,time elapsed leading to anesthesia,30% in paraffin oil,2 to 3 min
